Experimental data as given in patent publication US10597388B2, “Pyridazinone herbicides” (FMC CORPORATION, priority 2014, dated 2020).

Key:
Type in all cases: in vivo
[1] = test system: chickweed (common chickweed, Stellaria media); assay: Test C greenhouse herbicide test, postemergence
Method in brief: (§1)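 Visual injury scores (0–100, where 100 means complete control) were assigned 13 to 15 d after postemergence application, by comparison with untreated plants. Treated seedlings stood 2 to 18 cm tall, at the 1- to 4-leaf stage.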

[2] = test system: oat, wild (wild oat, Avena fatua); assay: Test C greenhouse herbicide test, postemergence
Method in brief: as §1

[3] = test system: galium (catchweed bedstraw, Galium aparine); assay: Test A greenhouse herbicide test, postemergence; conditions: for Galium plant response rating: 0 to 100 scale, 0 is no effect, 100 is complete control
Method in brief: (§2)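 Plants grown in loam soil/sand blend pots were treated postemergence at 2 to 10 cm height, one- to two-leaf stage, with formulated test chemicals. After approximately 10 d in a greenhouse, injury was rated visually against untreated controls on a 0 to 100 scale (0 no effect, 100 complete control).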

[4] = test system: blackgrass (Alopecurus myosuroides); assay: Test A greenhouse herbicide test, postemergence; conditions: for Blackgrass plant response rating: 0 to 100 scale, 0 is no effect, 100 is complete control
Method in brief: as §2

[5] = Postemergence, 31 g ai/ha, scale 0 to 100 (0 no effect, 100 complete control)
[6] = Postemergence, 125 g ai/ha, scale 0 to 100, 0 is no effect, 100 is complete control
[7] = Postemergence, 250 g ai/ha, scale 0 to 100, 0 no effect, 100 complete control, 13 to 15 d
[8] = postemergence, 62 g ai/ha, scale 0 to 100, 0 no effect, 100 complete control
[9] = 125 g ai/ha, 0 to 100 scale where 0 is no effect and 100 is complete control
[10] = 500 g ai/ha, visual rating after approx. 10 d, 0 to 100 scale (0 no effect, 100 complete control)
[11] = Postemergence, 62 g ai/ha, 0 to 100 scale (0 no effect, 100 complete control)
[12] = postemergence, 125 g ai/ha, scale 0 to 100, 0 no effect, 100 complete control
[13] = Postemergence, 16 g ai/ha, scale 0 to 100 (0 no effect, 100 complete control)
[14] = Postemergence, 31 g ai/ha, 0 to 100 scale (0 no effect, 100 complete control)
[15] = 125 g ai/ha, visual rating after approx. 10 d, 0 to 100 scale (0 no effect, 100 complete control)

Structure (SMILES) | Plant response rating, Chickweed [1, 5] | Plant response rating, Chickweed [1, 6] | Plant response rating, Chickweed [1, 7] | Chickweed plant response rating [1, 8] | Plant response rating, Oat, Wild [2, 5] | Plant response rating, Oat, Wild [2, 6] | Plant response rating, Oat, Wild [2, 7] | Plant response rating, Galium [3, 9] | Plant response rating, Galium [3, 10] | Plant response rating, Blackgrass [4, 9] | Blackgrass plant response rating ([4]; 500 g ai/ha) | Chickweed plant response rating [1, 14] | Oat, Wild plant response rating [2, 14] | Oat, Wild plant response rating [2, 8] | Galium plant response rating ([3]; 500 g ai/ha) | other results
CCCC(=O)Oc1c(C)nn(C)c(=O)c1-c1c(C)sc2c(C)cc(C)cc12 [Compound 106] | 95 | 95 | 98 | 98 | 50 | 90 | 90 | 100 | 100 | 90 | 90 | – | – | – | – | –
CC(=O)Oc1c(Br)nn(C)c(=O)c1-c1c(C)ccc2ccccc12 [Compound 129] | 98 | – | 100 | – | 85 | – | 98 | 100 | 100 | 60 | – | – | – | – | – | Chickweed plant response rating [1, 11]: 98; Chickweed plant response rating [1, 12]: 100; Oat, Wild plant response rating [2, 11]: 90; Oat, Wild plant response rating [2, 12]: 100; Plant response rating, Blackgrass [4, 10]: 100
COc1ccc2ccccc2c1-c1c(O)c(C)nn(C)c1=O [Compound 40] | – | 90 | – | 60 | – | 60 | – | 90 | – | 60 | 80 | 55 | 35 | 50 | 100 | Plant response rating, Chickweed [1, 13]: 50; Plant response rating, Oat, Wild [2, 13]: 5
Cc1nn(C)c(=O)c(-c2c(C)sc3ccc(Cl)cc23)c1O [Compound 104] | 90 | 100 | 100 | 98 | 80 | 90 | 90 | 100 | 100 | 90 | 90 | – | – | – | – | –
Cc1ccc(-c2c(O)c(Br)nn(C)c2=O)c2ccccc12 [Compound 52] | – | 98 | 100 | 90 | – | 0 | 0 | 100 | – | 20 | 30 | 95 | 0 | 0 | 100 | –
CCOC(=O)Oc1c(C)nn(C)c(=O)c1-c1c(CC)ccc2ccccc12 [Compound 37] | – | 90 | 95 | 90 | – | 90 | 90 | – | – | – | 100 | 90 | 60 | 80 | 100 | Plant response rating, Galium [3, 15]: 100; Plant response rating, Blackgrass [4, 15]: 60
